Where only a bound is given, the exact number is not on record here.

The target in assay [1] is T1, ΔF508-CFTR (Homo sapiens, UniProt P13569, DEL508-508).
T1 construct: host or cells: CFBE41o-, doxycycline-inducible
The assay is described as follows: CFTR cell surface levels using HRP-tagged ΔF508-CFTR expressing CFBE cells, in the presence of a co-corrector. It counts as cell-based. The note with it: HRP-tagged ΔF508-CFTR CFBE cells, in the presence of 3 μM co-corrector; for EC50: read-out: EC50. Summed up: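 Chemiluminescent read-out of surface HRP (15 min, dark) after PBS washes. Activity is normalized as 100×(sample−DMSO)/(3 μM co-corrector alone−DMSO).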

Assay [2] has as its target T1, ΔF508-CFTR. Kind of assay: CFTR cell surface levels using HRP-tagged ΔF508-CFTR expressing CFBE cells, intrinsic corrector capacity. It counts as cell-based. Also noted: % Activation: concentration or dose not given beside the values. Particulars: HRP-tagged ΔF508-CFTR expressing CFBE41o- cells, compound alone (intrinsic corrector capacity), 20 hours at 33° C.; for EC50: read-out: EC50. Summed up:
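Read-out: chemiluminescent HRP activity of ECL4-HRP-tagged ΔF508-CFTR at the cell surface, 15 min substrate in dark. Normalized as 100×(sample−DMSO)/(positive control−DMSO).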

T1 sequence (P13569 with tags, fused parts or gaps DEL508-508): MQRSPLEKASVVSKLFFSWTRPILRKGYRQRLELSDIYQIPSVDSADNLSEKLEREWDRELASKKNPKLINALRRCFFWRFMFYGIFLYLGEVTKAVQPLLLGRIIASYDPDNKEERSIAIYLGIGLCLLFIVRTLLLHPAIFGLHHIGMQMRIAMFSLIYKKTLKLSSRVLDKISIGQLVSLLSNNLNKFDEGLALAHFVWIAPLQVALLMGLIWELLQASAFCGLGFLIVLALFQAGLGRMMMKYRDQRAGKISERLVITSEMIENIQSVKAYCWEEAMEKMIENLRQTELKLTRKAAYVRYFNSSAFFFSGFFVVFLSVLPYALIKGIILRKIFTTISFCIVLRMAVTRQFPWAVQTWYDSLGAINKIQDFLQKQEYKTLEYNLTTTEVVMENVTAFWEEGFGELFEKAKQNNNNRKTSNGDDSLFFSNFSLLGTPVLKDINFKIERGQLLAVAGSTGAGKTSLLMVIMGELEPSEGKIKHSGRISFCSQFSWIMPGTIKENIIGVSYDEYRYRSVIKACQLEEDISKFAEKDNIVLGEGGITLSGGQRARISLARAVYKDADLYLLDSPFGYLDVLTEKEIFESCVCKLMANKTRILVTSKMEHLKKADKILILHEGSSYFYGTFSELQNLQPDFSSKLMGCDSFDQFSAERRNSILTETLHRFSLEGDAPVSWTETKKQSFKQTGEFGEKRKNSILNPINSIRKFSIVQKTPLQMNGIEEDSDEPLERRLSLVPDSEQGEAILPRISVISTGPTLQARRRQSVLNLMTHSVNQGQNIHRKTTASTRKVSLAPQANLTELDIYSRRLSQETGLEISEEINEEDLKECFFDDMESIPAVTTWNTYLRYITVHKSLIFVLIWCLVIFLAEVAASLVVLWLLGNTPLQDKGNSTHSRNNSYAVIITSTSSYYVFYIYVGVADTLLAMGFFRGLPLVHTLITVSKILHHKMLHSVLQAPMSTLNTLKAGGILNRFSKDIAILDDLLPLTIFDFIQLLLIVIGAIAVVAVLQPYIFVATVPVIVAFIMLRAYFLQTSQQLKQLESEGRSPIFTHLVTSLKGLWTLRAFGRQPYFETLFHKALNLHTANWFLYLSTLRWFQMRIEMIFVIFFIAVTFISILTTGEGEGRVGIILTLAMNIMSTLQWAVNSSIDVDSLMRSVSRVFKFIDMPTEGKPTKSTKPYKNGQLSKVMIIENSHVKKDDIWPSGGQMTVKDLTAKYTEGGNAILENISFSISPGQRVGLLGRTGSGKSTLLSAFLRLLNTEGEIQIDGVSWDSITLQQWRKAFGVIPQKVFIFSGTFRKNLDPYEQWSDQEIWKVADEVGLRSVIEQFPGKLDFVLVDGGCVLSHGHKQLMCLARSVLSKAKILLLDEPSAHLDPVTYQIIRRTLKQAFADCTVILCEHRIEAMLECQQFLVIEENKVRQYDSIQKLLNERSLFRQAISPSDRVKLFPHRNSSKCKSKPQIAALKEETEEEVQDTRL

By EC50 is commonly meant the concentration that produces a half-maximal response. With `COC1CCN(c2cc(C(=O)NS(C)(=O)=O)nc3c2c(C(C)C)nn3-c2cccc(N3CCOCC3)n2)CC1` [Compound 217, N-(methanesulfonyl)-4-(4-methoxypiperidin-1-yl)-1-[6-(morpholin-4-yl)pyridin-2-yl]-3-(propan-2-yl)-1H-pyrazolo[3,4-b]pyridine-6-carboxamide], the results for the “% Activation” value in assay [1] and in assay [2] were 418.27% and 246.77%, respectively. For the same compound, the EC50 in assay [1] amounted to 257 nM; in assay [2], 458 nM.

As to `COCC1CCN(c2cc(C(=O)NS(C)(=O)=O)nc3c2c(C(C)C)nn3C2CCCCC2)CC1` [Compound 218, 1-cyclohexyl-N-(methanesulfonyl)-4-[4-(methoxymethyl)piperidin-1-yl]-3-(propan-2-yl)-1H-pyrazolo[3,4-b]pyridine-6-carboxamide], in assay [1], the “% Activation” value came to 476.9% and the 50% effective concentration (EC50) is 239 nM. Moreover, in assay [2], the “% Activation” value came out at 268.37% and the EC50 came out at 390 nM.

Turning to `CS(=O)(=O)NC(=O)c1cc(N2CCC(CF)CC2)c2c(C3CCC3)nn(-c3ccccc3)c2n1` [Compound 220, 3-cyclobutyl-4-[4-(fluoromethyl)piperidin-1-yl]-N-(methanesulfonyl)-1-phenyl-1H-pyrazolo[3,4-b]pyridine-6-carboxamide], the figures for the “% Activation” value in assay [1] and in assay [2] were 389.9% and 202.5%, respectively. Also, the EC50 stood at 208 nM in assay [1] and 348 nM in assay [2].

With `CS(=O)(=O)NC(=O)c1cc(N2CCC3(CCCCC3)CC2)c2c(C3CCC3)nn(-c3ccccc3)c2n1` [Compound 222, 4-(3-azaspiro[5.5]undecan-3-yl)-3-cyclobutyl-N-(methanesulfonyl)-1-phenyl-1H-pyrazolo[3,4-b]pyridine-6-carboxamide], the figures for the “% Activation” value in assay [1] and in assay [2] were 247.3% and 65.685%, respectively. Further, the figures for the EC50 in assay [1] and in assay [2] were 1790 nM and 1420 nM, respectively.

On to `CCS(=O)(=O)NC(=O)c1cc(-c2ccc(N3CCOCC3)cc2)c2c(C(C)C)nn(-c3ccc(F)c(F)c3)c2n1` [Compound 223, 1-(3,4-difluorophenyl)-N-(ethanesulfonyl)-4-[4-(morpholin-4-yl)phenyl]-3-(propan-2-yl)-1H-pyrazolo[3,4-b]pyridine-6-carboxamide], for which the “% Activation” value was 438.2% in assay [1] and 258.95% in assay [2]. Moreover, the results for the half-maximal effective concentration (EC50) in assay [1] and in assay [2] were 371 nM and 469 nM, respectively.

Consider `CCS(=O)(=O)NC(=O)c1cc(-c2ccc(N(C)C3CCOCC3)nc2)c2c(C(C)C)nn(-c3cccc(F)c3)c2n1` [Compound 224, N-(ethanesulfonyl)-1-(3-fluorophenyl)-4-{6-[methyl(oxan-4-yl)amino]pyridin-3-yl}-3-(propan-2-yl)-1H-pyrazolo[3,4-b]pyridine-6-carboxamide], for which the “% Activation” value in assay [1] was 453.1%; in assay [2], 228.8%. For the same compound, the 50% effective concentration (EC50) in assay [1] amounted to 482 nM; in assay [2], 544 nM.

As for `CC(C)Oc1nn(-c2ccccc2)c2nc(C(=O)NS(=O)(=O)C3CC3)cc(-c3ccc(N4CCOCC4)cc3)c12` [Compound 225, N-(cyclopropanesulfonyl)-4-[4-(morpholin-4-yl)phenyl]-1-phenyl-3-[(propan-2-yl)oxy]-1H-pyrazolo[3,4-b]pyridine-6-carboxamide], in assay [1], the “% Activation” value was found to be 427.95% and the EC50 was determined as 579 nM. For the same compound, in assay [2], the “% Activation” value stood at 215.35% and the EC50 amounted to 456 nM.

As to `CC(C)c1nn(-c2ccnc(N3CCOCC3)c2)c2nc(C(=O)NS(C)(=O)=O)cc(-c3ccc(N4CCC(C#N)CC4)nc3)c12` [Compound 227, 4-[6-(4-cyanopiperidin-1-yl)pyridin-3-yl]-N-(methanesulfonyl)-1-[2-(morpholin-4-yl)pyridin-4-yl]-3-(propan-2-yl)-1H-pyrazolo[3,4-b]pyridine-6-carboxamide], in assay [1], the “% Activation” value is recorded as 378.2% and the concentration for a half-maximal effect (EC50) worked out at 307 nM. Also, in assay [2], the “% Activation” value was 216.8% and the EC50 is 449 nM.

Take `COCCS(=O)(=O)NC(=O)c1cc(-c2ccc(OC)cc2)c2c(C)nn(CC(C)C)c2n1` [Compound 231, N-(2-methoxyethanesulfonyl)-4-(4-methoxyphenyl)-3-methyl-1-(2-methylpropyl)-1H-pyrazolo[3,4-b]pyridine-6-carboxamide]: in assay [1], the “% Activation” value was 329.9% and the half-maximal effective concentration (EC50) amounted to 518 nM. In assay [2], the “% Activation” value is 162.9% and the EC50 came out at 939 nM.

In the case of `COCCS(=O)(=O)NC(=O)c1cc(-c2ccc(N3CCOCC3)cc2)c2c(C(C)C)nn(C3CCOC3)c2n1` (centres unmarked) [Compound 232, N-(2-methoxyethanesulfonyl)-4-[4-(morpholin-4-yl)phenyl]-1-(oxolan-3-yl)-3-(propan-2-yl)-1H-pyrazolo[3,4-b]pyridine-6-carboxamide], in assay [1], the “% Activation” value is on record as 199.75% and the EC50 was found to be 1730 nM. Further, in assay [2], the “% Activation” value is recorded as 71.64% and the EC50 is 1680 nM.

Consider `COCCS(=O)(=O)NC(=O)c1cc(-c2ccc(N3CCOCC3)cc2)c2cnn(-c3ccccc3)c2n1` [Compound 233, N-(2-methoxyethanesulfonyl)-4-[4-(morpholin-4-yl)phenyl]-1-phenyl-1H-pyrazolo[3,4-b]pyridine-6-carboxamide], for which, in assay [1], the “% Activation” value was 206.57% and the concentration for a half-maximal effect (EC50) is 1930 nM. Moreover, in assay [2], the “% Activation” value worked out at 58.34% and the EC50 was 2440 nM.

As to `COCCS(=O)(=O)NC(=O)c1cc(-c2ccc(OC)cc2)c2c(C)nn(C(C)C)c2n1` [Compound 234, N-(2-methoxyethanesulfonyl)-4-(4-methoxyphenyl)-3-methyl-1-(propan-2-yl)-1H-pyrazolo[3,4-b]pyridine-6-carboxamide], in assay [1], the “% Activation” value was 128.3% and the EC50 is > 10000 nM. In addition, in assay [2], the “% Activation” value is 17.89% and the EC50 was > 10000 nM.

`COCCS(=O)(=O)NC(=O)c1cc(-c2ccc(N3CCOCC3)cc2)c2c(C)nn(C3CC3)c2n1` [Compound 235, 1-cyclopropyl-N-(2-methoxyethanesulfonyl)-3-methyl-4-[4-(morpholin-4-yl)phenyl]-1H-pyrazolo[3,4-b]pyridine-6-carboxamide]: in assay [1], the “% Activation” value is given as 257.55% and the EC50 was 2490 nM. Further, in assay [2], the “% Activation” value was 102.76% and the EC50 came to 3270 nM.

For `CS(=O)(=O)NC(=O)c1cc(OC[C@H](F)C2CCOCC2)c2c(C3CCC3)nn(-c3ccccc3)c2n1` [Compound 237, 3-cyclobutyl-4-[(2R)-2-fluoro-2-(oxan-4-yl)ethoxy]-N-(methanesulfonyl)-1-phenyl-1H-pyrazolo[3,4-b]pyridine-6-carboxamide], in assay [1], the “% Activation” value was determined as 264.05% and the EC50 was 222 nM. In addition, in assay [2], the “% Activation” value came to 120% and the EC50 worked out at 453 nM.

On to `Cc1nn(C2CCCCC2)c2nc(C(=O)NS(=O)(=O)C3CC3)cc(-c3ccc(N4CCOCC4)cc3)c12` [Compound 239, 1-cyclohexyl-N-(cyclopropanesulfonyl)-3-methyl-4-[4-(morpholin-4-yl)phenyl]-1H-pyrazolo[3,4-b]pyridine-6-carboxamide], for which, in assay [1], the “% Activation” value turned out to be 431.55% and the EC50 is 1240 nM. In assay [2], the “% Activation” value was 184.6% and the concentration giving a half-maximal response (EC50) is 999 nM.

As to `COCC1CCN(c2cc(C(=O)NS(=O)(=O)c3cn[nH]c3)nc3c2c(C2CCC2)nn3-c2ccccc2)CC1` [Compound 253, 3-cyclobutyl-4-[4-(methoxymethyl)piperidin-1-yl]-1-phenyl-N-(1H-pyrazole-4-sulfonyl)-1H-pyrazolo[3,4-b]pyridine-6-carboxamide], in assay [1], the “% Activation” value was determined as 454.4% and the 50% effective concentration (EC50) was determined as 251 nM. Also, in assay [2], the “% Activation” value is 174.6% and the concentration for a half-maximal effect (EC50) was found to be 676 nM.

For `CC1(COc2cc(C(=O)NS(C)(=O)=O)nc3c2c(C2CCC2)nn3-c2ccccc2)COC1` [Compound 254, 3-cyclobutyl-N-(methanesulfonyl)-4-[(3-methyloxetan-3-yl)methoxy]-1-phenyl-1H-pyrazolo[3,4-b]pyridine-6-carboxamide], in assay [1], the “% Activation” value is listed as 312.1% and the half-maximal effective concentration (EC50) is 370 nM. In assay [2], the “% Activation” value came out at 117.5% and the EC50 amounted to 400 nM.

As to `COC1(CN2CCS(=O)(=O)CC2)CCN(c2cc(C(=O)NS(C)(=O)=O)nc3c2c(C2CCC2)nn3-c2ccccc2)CC1` [Compound 255, 3-cyclobutyl-4-{4-[(1,1-dioxo-1λ^6,4-thiazinan-4-yl)methyl]-4-methoxypiperidin-1-yl}-N-(methanesulfonyl)-1-phenyl-1H-pyrazolo[3,4-b]pyridine-6-carboxamide], the results for the “% Activation” value in assay [1] and in assay [2] were 365.8% and 122.3%, respectively. The half-maximal effective concentration (EC50) in assay [1] is 3330 nM; in assay [2], 1880 nM.

Turning to `COCCS(=O)(=O)NC(=O)c1cc(N2CCC(COC)CC2)c2c(C3CCC3)nn(-c3ccccc3)c2n1` [Compound 256, 3-cyclobutyl-N-(2-methoxyethanesulfonyl)-4-[4-(methoxymethyl)piperidin-1-yl]-1-phenyl-1H-pyrazolo[3,4-b]pyridine-6-carboxamide], the entries for the “% Activation” value in assay [1] and in assay [2] were 508.63% and 331.85%, respectively.

The record behind these values is patent US10259810B2, “N-sulfonylated pyrazolo[3,4-b]pyridin-6-carboxamides and method of use” (AbbVie S.à.r.l., priority 2015, dated 2019).
